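Compound exposure: 48 hours, 5 concentrations, 96-well plates. The concentration for 50% growth inhibition is given as GI50.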 Calls of active or inactive are those of the source. Cut-off read from the data, not from the text of the source: active = GI50 up to about 1.1 µM and inactive = higher.
Key:
Experiment in all cases: NCI tumour cell line growth inhibition, 48 h
[1] = tested on: SN12C
[2] = tested on: HCC 2998
[3] = tested on: BT-549
[4] = tested on: SK-MEL-2
[5] = tested on: KM12
[6] = tested on: M14
[7] = tested on: NCI-H226
[8] = tested on: NCI-H23
[9] = tested on: SK-MEL-5
[10] = tested on: MDA-MB-231
[11] = tested on: SF-539
[12] = tested on: EKVX
[13] = tested on: NCI/ADR-RES
[14] = tested on: MDA-MB-435
[15] = tested on: 786-0
[16] = tested on: PC-3
[17] = tested on: HT-29
[18] = tested on: NCI-H460
[19] = tested on: LOX IMVI
[20] = tested on: SNB-75

Measured: GI50

Nc1nc2c(C(=O)NCc3cccs3)nnn2c2cccc(Cl)c12
inactive: [1] > 100 µM | [2] 30.5 µM | [3] > 100 µM | [4] > 100 µM | [5] > 100 µM | [6] > 100 µM | [7] 92 µM | [8] 87.3 µM | [9] 92.3 µM | [10] 60.1 µM | [11] 77.3 µM | [12] 57.8 µM | [13] > 100 µM | [14] > 100 µM | [15] > 100 µM | [16] 54.5 µM | [17] > 100 µM | [18] > 100 µM | [19] > 100 µM

C=CC[C@@H]1C=C[C@@H](C(=O)OC)n2c(=O)n(-c3ccccc3)c(=O)n21
inactive: [1] > 100 µM | [2] > 100 µM | [3] > 100 µM | [5] > 100 µM | [6] > 100 µM | [20] > 100 µM | [7] > 100 µM | [8] > 100 µM | [9] > 100 µM | [10] > 100 µM | [11] > 100 µM | [12] > 100 µM | [13] > 100 µM | [14] > 100 µM | [15] > 100 µM | [17] > 100 µM | [19] > 100 µM

CCCCC/N=C/c1c(O)c(O)c(C(C)C)c2cc(C)c(-c3c(C)cc4c(C(C)C)c(O)c(O)c(/C=N/CCCCC)c4c3O)c(O)c12
inactive: [1] 7.94 µM | [2] 10.7 µM | [3] 7.87 µM | [4] 14 µM | [5] 4.7 µM | [6] 38.1 µM | [7] 23 µM | [8] 12 µM | [9] 6.3 µM | [10] 7.43 µM | [11] 6.08 µM | [12] 7.96 µM | [13] 27.1 µM | [14] 6.3 µM | [15] 11.8 µM | [16] 5.35 µM | [17] 2.88 µM | [18] 5.65 µM | [19] 3.52 µM

O=P1(Oc2ccccc2)N=P(c2ccccc2)(c2ccccc2)C=C(c2ccc(Cl)cc2)N1 (centres undefined)
inactive: [1] 16.6 µM | [3] 16 µM | [4] 13.5 µM | [5] 10.3 µM | [6] 7.67 µM | [8] 15.3 µM | [9] 2.25 µM | [10] 16.5 µM | [11] 15.3 µM | [12] 7.89 µM | [13] 10.9 µM | [14] 4.44 µM | [15] 13.4 µM | [16] 6.58 µM | [17] 4.29 µM | [18] 5.14 µM

COc1ccc(N2C(=O)CSC2c2cc(OC)c(OC)c(OC)c2)cc1 (centres undefined)
inactive: [1] 25.1 µM | [2] 16.7 µM | [3] 23.2 µM | [4] 33.9 µM | [5] 15.1 µM | [6] 18.6 µM | [7] 62.7 µM | [8] 25.3 µM | [9] 20.9 µM | [10] 26.5 µM | [11] 32.8 µM | [12] 28.4 µM | [13] 22.2 µM | [14] 10.9 µM | [15] 21.4 µM | [16] 25.1 µM | [17] 21.6 µM | [18] 18.9 µM | [19] 23.1 µM

CC(=O)Nc1ccc(N2C(=O)/C(=C\c3cccc(Oc4ccccc4)c3)SC2c2ccccc2)cc1 (centres undefined)
inactive: [1] 26.8 µM | [2] > 100 µM | [3] 33.3 µM | [4] 30.4 µM | [5] 24.4 µM | [6] 32.3 µM | [7] 22 µM | [8] 26.1 µM | [9] 23.7 µM | [10] 32.6 µM | [11] 19.3 µM | [12] 42.7 µM | [13] 29.5 µM | [14] 32.5 µM | [15] 37.8 µM | [18] 50.7 µM | [19] 17.2 µM

Oc1ccc2c3c1OC1c4[nH]c5c(c4CC4(O)C(C2)N(CC2CC2)CC[C@]314)CC1(O)C2Cc3ccc(O)c4c3[C@@]1(CCN2CC1CC1)C5O4 (some centres undefined)
inactive: [1] 35 µM | [2] 18.7 µM | [3] > 100 µM | [4] 24.2 µM | [5] 17.5 µM | [6] 17.5 µM | [7] 27.8 µM | [8] > 100 µM | [9] 44 µM | [10] 24.4 µM | [12] 35.6 µM | [13] > 100 µM | [14] 19.9 µM | [15] 21.3 µM | [16] 43.5 µM | [17] 20 µM | [19] 27 µM

CO/C(=N\N=C\c1ccccc1F)c1ccncc1
inactive: [1] > 10 µM | [2] > 10 µM | [3] > 10 µM | [4] > 10 µM | [5] > 10 µM | [6] > 10 µM | [7] > 10 µM | [8] > 10 µM | [10] > 10 µM | [12] > 10 µM | [13] > 10 µM | [14] > 10 µM | [15] > 10 µM | [16] > 10 µM | [17] > 10 µM | [18] > 10 µM | [19] > 10 µM

CNC(=S)N1CCN(C(C)=O)C1=S
inactive: [1] 57.7 µM | [2] 31.9 µM | [3] 12.9 µM | [4] 2.25 µM | [5] 56.9 µM | [6] 42.4 µM | [20] 26.5 µM | [7] 22.4 µM | [8] 27.7 µM | [9] 71.4 µM | [10] 4.27 µM | [11] 20.4 µM | [12] 25.1 µM | [13] 69.3 µM | [14] 22.2 µM | [15] > 100 µM | [17] 67.8 µM | [18] 87.9 µM | [19] 76.7 µM

C=C(Cl)C(Br)(CBr)CCC(Br)C(C)(C)Br (centres undefined)
inactive: [1] 7.73 µM | [2] > 10 µM | [3] > 10 µM | [5] 4.37 µM | [6] > 10 µM | [20] 4.7 µM | [7] > 10 µM | [8] > 10 µM | [9] > 10 µM | [10] 1.62 µM | [11] 2.54 µM | [12] > 10 µM | [14] > 10 µM | [15] 1.57 µM | [16] > 10 µM | [17] 3.33 µM

Cn1c2ccccc2c2ccc3c(c21)C(=O)c1ccccc1C3=O
inactive: [1] 20.6 µM | [2] 41.9 µM | [3] 21.1 µM | [5] 27.8 µM | [6] 27.2 µM | [7] 30.1 µM | [8] 15.7 µM | [9] 13.2 µM | [10] 19.5 µM | [11] 17.3 µM | [12] 12.5 µM | [13] 13.7 µM | [14] 16 µM | [15] 17.6 µM | [16] 13 µM | [17] 16.9 µM | [19] 15.9 µM

CCOC(=O)c1ccc2nc(NC(=O)COC(=O)CSc3nc(C)cc(C)n3)sc2c1
inactive: [1] 39 µM | [3] 31.2 µM | [4] > 100 µM | [5] > 100 µM | [6] 41.6 µM | [20] 16.4 µM | [8] > 100 µM | [9] 53.3 µM | [10] 66.4 µM | [11] 26.1 µM | [12] 18.5 µM | [13] 48.4 µM | [14] > 100 µM | [15] 97.1 µM | [16] 40.2 µM | [17] 66.2 µM | [18] 38.7 µM | [19] 48 µM

O=S(=O)(O)c1ccc2c(/N=N/c3cccc4ccccc34)c(O)ccc2c1
inactive: [1] > 100 µM | [3] > 100 µM | [4] > 100 µM | [5] > 100 µM | [6] > 100 µM | [20] > 100 µM | [7] > 100 µM | [8] > 100 µM | [9] > 100 µM | [10] > 100 µM | [12] > 100 µM | [13] > 100 µM | [14] > 100 µM | [15] > 100 µM | [16] > 100 µM | [17] > 100 µM | [19] > 100 µM

C=CCN1C[C@@H](C)N([C@@H](c2ccc(C(=O)N(CC)CC)cc2)c2cccc(OC)c2)C[C@@H]1C
inactive: [1] > 100 µM | [3] > 100 µM | [4] > 100 µM | [5] > 100 µM | [6] > 100 µM | [7] > 100 µM | [8] > 100 µM | [9] > 100 µM | [10] > 100 µM | [11] > 100 µM | [12] > 100 µM | [13] > 100 µM | [14] > 100 µM | [15] > 100 µM | [16] > 100 µM | [17] > 100 µM | [19] > 100 µM

CC(C)=CCC/C(C)=C/CO [GERANIOL]
inactive: [1] > 100 µM | [2] > 100 µM | [3] > 100 µM | [4] > 100 µM | [5] > 100 µM | [6] > 100 µM | [7] > 100 µM | [8] > 100 µM | [9] > 100 µM | [10] > 100 µM | [11] > 100 µM | [12] > 100 µM | [13] > 100 µM | [14] > 100 µM | [15] > 100 µM | [16] > 100 µM | [17] > 100 µM | [18] > 100 µM | [19] > 100 µM

— ChEMBL document CHEMBL1201862, “PubChem BioAssay data set” (2004)
